Results reported in patent publication US12440493B2, “Combination therapy for treating cancer comprising substituted piperazines” (Eli Lilly and Company, priority 2020, dated 2025).
Where “and” joins values, the source holds several entries; their conditions need not be identical. Equal values may be shown once.

Tested on: IDH1(R132H) primary human AML cells
Assay: AML clearance in peripheral blood (flow cytometry, % hCD33+hCD45+ of total white cells), human AML PDx models in NSG mice
Type: in vivo
Details: for AML clearance (% hCD33 + hCD45+ (of total white cells)): QD, PO, each value one animal
Protocol: Compounds and Formulation. For in vivo studies, each test article is prepared at an appropriate concentration with vehicle. […] Compound A is prepared fresh at the appropriate concentrations with vehicle every 7 days and stored at 4° C. between doses. […] Cytarabine is prepared fresh weekly by dilution with sterile saline from stock solution of Cytarabine (injection 20 mg/mL, (Pfizer injectables')). Azacitidine (Sigma, Lot #MKBR7212) is formulated in sterile water and is prepared fresh daily immediately before dosing. In vivo human AML PDx models. […] Two models are used in the studies: […] As needed, splenocytes from tumor-bearing mice are used to propagate and expand the models, as described. Each test article is prepared as described above at an appropriate concentration with vehicle to give animals the doses tested in this study at a dosing volume of 10 μL/gram body weight. Mice receiving Compound A (PO, QD) are treated at the indicated doses for the duration of the study. The combination agents are dosed as follows: […] Treated mice are assessed in comparison to vehicle treated and naïve (non-tumor bearing) control mice. Body weight is recorded twice per week. […] AML PDx model propagation. […] Spleens are processed and splenocytes isolated as described below. Two hundred μL per subject of the splenocyte prep is injected IV (intravenous, tail vein) into recipient NSG mice. […] Once engraftment is confirmed, the mice are monitored biweekly until ready to be put on study. […] Submandibular blood is collected. Spleen/Splenocyte Processing and Prep. After excision, a spleen is weighed, and […] is placed in a standard sterile 15 mL polypropylene conical tube containing PBS, and placed on ice. […] The spleen is placed in ice cold sterile PBS in a 15 mL collection tube. The spleen is removed from the collection tube and placed in a 100 micron 50 mL conical tube cell strainer (BD Falcon #352360). The spleen is processed by gentle rubbing of the spleen tissue against the surface of the cell strainer with the end of a 5 mL syringe plunger in a circular motion. The surface of the strainer is rinsed with 10 mL room temperature sterile DPBS (HyClone SH30028) 3 times during the process. […] The cell pellet is collected by centrifugation (300×g) and washed three times with 30 mL sterile DPBS. The cells are counted and resuspended in DPBS at the desired implant concentration. Bone Marrow Collection. […] Flow cytometry analysis of human white cells. Submandibular blood samples from in vivo studies are collected. Fluor-conjugated antibody stains are added according to the manufacturer's instructions (anti-human CD33-PE (clone WM53, BD Cat #555450), anti-human CD14-APC (clone MφpP9, BD Cat #340436), anti-human CD15-V450 (clone HI98, BD Cat #561584), anti-human CD117-BV421 (clone YB5.B8, BD Cat #562434), anti-human […]7 (clone ICRF44, BD Cat #557754), anti-human […]7 (clone HI30, BD Cat #557748), and anti-human CD3-FITC (clone SK7, BD Cat #340542)). The samples are incubated for 30 minutes at room temperature, protected from light. After the incubation, 1.5 mL 1×BD Lyse/Fix (37° C., (BD #558049)) is added to each sample and incubated for 12 minutes at room temperature. The tubes are centrifuged at 300×g for 7 minutes. BD Lyse/Fix solution is aspirated and the cell pellet washed with stain/wash buffer 3 times (1 wash step consisted of: pellet resuspended in 3 mL stain/wash buffer, centrifuged at 300×g, aspirated wash). Fixed cells are then resuspended in 300 to 400 μL stain/wash buffer. Samples are analyzed on a Becton Dickinson FACSVerse Flow cytometer (Cat #651155 Serial #Z6511550447) using standard flow cytometry principles and techniques. Samples are analyzed on the same day as they are stained and fixed. Population gating and data analysis of percent population are performed in the FACSuite software on the FACSVerse cytometer. Percent population values from the data analysis are plotted in Graphpad Prism or in JMP13. […]

## C=CC(=O)N1CCN([C@@H](CC2CC2)c2ccc([C@H](C)Nc3ncc4c(n3)N(CC)C(=O)OC4)cc2)CC1 [Compound A, 7-[[(1S)-1-[4-[(1S)-2-cyclopropyl-1-(4-prop-2-enoylpiperazin-1-yl)ethyl]phenyl]ethyl]amino]-1-ethyl-4H-pyrimido[4,5-d][1,3]oxazin-2-one]
Treatment day 36, 10 mg/kg Compound A, 10 mg/kg
  AML clearance (% hCD33 + hCD45+ (of total white cells)): 4.67% and 3.89% and 4.32% and 2.11% and 2.39%
Treatment day 43, 3.3 mg/kg Compound A, Table 2A, 3.3 mg/kg
  AML clearance (% hCD33 + hCD45+ (of total white cells)): 59.89% and 65.62% and 61.99% and 47.87% and 52.96% and 62.25% and 27.91%
Treatment day 47, 3.3 mg/kg Compound A, 3.3 mg/kg
  AML clearance (% hCD33 + hCD45+ (of total white cells)): 64.21% and 29.4% and 31.38% and 63.41% and 45.19% and 20.69% and 37.68%
Treatment day 50, 1 mg/kg Compound A, 1 mg/kg
  AML clearance (% hCD33 + hCD45+ (of total white cells)): 26.13% and 48.71% and 41.07% and 42.54%
Treatment day 50, 10 mg/kg Compound A, 10 mg/kg
  AML clearance (% hCD33 + hCD45+ (of total white cells)): 2.9% and 3.66% and 5.08% and 2.11% and 1.55%
Treatment day 58, 3.3 mg/kg Compound A, Table 2A, 3.3 mg/kg
  AML clearance (% hCD33 + hCD45+ (of total white cells)): 67.45% and 59.45% and 67.73% and 53.95% and 44.7% and 48.88% and 71.52%
Treatment day 61, 3.3 mg/kg Compound A, 3.3 mg/kg
  AML clearance (% hCD33 + hCD45+ (of total white cells)): 68.85% and 72.89% and 47.42% and 56.98% and 82.54% and 38.58% and 74.64%
Treatment day 64, 1 mg/kg Compound A, 1 mg/kg
  AML clearance (% hCD33 + hCD45+ (of total white cells)): 51.67% and 57.72% and 55.61% and 45.53%
Treatment day 64, 10 mg/kg Compound A, 10 mg/kg
  AML clearance (% hCD33 + hCD45+ (of total white cells)): 0.94% and 1.66% and 1.11% and 1.55% and 0.62%
Treatment day 75, 3.3 mg/kg Compound A, 3.3 mg/kg
  AML clearance (% hCD33 + hCD45+ (of total white cells)): 67.91% and 54.26% and 56.55% and 90.69% and 45.05% and 68.73%
Treatment day 77, 3.3 mg/kg Compound A, Table 2A, 3.3 mg/kg
  AML clearance (% hCD33 + hCD45+ (of total white cells)): 74.81% and 79.27% and 43.75% and 60.02% and 75.38% and 59.74%
Treatment day 78, 1 mg/kg Compound A, 1 mg/kg
  AML clearance (% hCD33 + hCD45+ (of total white cells)): 65.17% and 75.95% and 68.32% and 56.56%
Treatment day 78, 10 mg/kg Compound A, 10 mg/kg
  AML clearance (% hCD33 + hCD45+ (of total white cells)): 0.89% and 1.72% and 0.4% and 0.45% and 0.46%
Treatment day 84, 1 mg/kg Compound A, 1 mg/kg
  AML clearance (% hCD33 + hCD45+ (of total white cells)): 98.27% and 84.52%
Treatment day 89, 3.3 mg/kg Compound A, 3.3 mg/kg
  AML clearance (% hCD33 + hCD45+ (of total white cells)): 66.75% and 67.29% and 63.26% and 92.41% and 41.16% and 62.6%
Treatment day 92, 10 mg/kg Compound A, 10 mg/kg
  AML clearance (% hCD33 + hCD45+ (of total white cells)): 0.8% and 2.36% and 0.4% and 0.19% and 0.32%
Treatment day 98, 3.3 mg/kg Compound A, Table 2A, 3.3 mg/kg
  AML clearance (% hCD33 + hCD45+ (of total white cells)): 55.63% and 73.72% and 73.42% and 85.43% and 64.03%
Treatment day −3, 3.3 mg/kg Compound A, 3.3 mg/kg
  AML clearance (% hCD33 + hCD45+ (of total white cells)): 17.5% and 23.88% and 24.18% and 19.46% and 14.94% and 20.14%
Treatment day −8, 1 mg/kg Compound A, 1 mg/kg
  AML clearance (% hCD33 + hCD45+ (of total white cells)): 6.97% and 3.7% and 3.2% and 7.02% and 11.07%
Treatment day −8, 10 mg/kg Compound A, 10 mg/kg
  AML clearance (% hCD33 + hCD45+ (of total white cells)): 2.43% and 7.61% and 4.1% and 6.27% and 6.53%
Treatment day −19, 3.3 mg/kg Compound A, Table 2A, 3.3 mg/kg
  AML clearance (% hCD33 + hCD45+ (of total white cells)): 6.86% and 3.77% and 4.41% and 2.93% and 5.26% and 4.84% and 2.39%
Day 43, group B: Compound A (3.3 mg/kg), azacitidine study, vehicle 71%
  % peripheral blood AML cells (treatment group value): 52%
Day 47, group B: Compound A (3.3 mg/kg), cytarabine study, vehicle 86%
  % peripheral blood AML cells (treatment group value): 39%
Day 50, group B: 1 mg Compound A, vehicle 32%
  % peripheral blood AML cells (treatment group value): 37%
Day 50, group C: 10 mg Compound A, vehicle 32%
  % peripheral blood AML cells (treatment group value): 2.8%
Day 64, group B: 1 mg Compound A, vehicle 67%
  % peripheral blood AML cells (treatment group value): 51%
Day 64, group C: 10 mg Compound A, vehicle 67%
  % peripheral blood AML cells (treatment group value): 1.1%
Day 78, group B: 1 mg Compound A, vehicle 129%
  % peripheral blood AML cells (treatment group value): 65%
Day 78, group C: 10 mg Compound A, vehicle 129%
  % peripheral blood AML cells (treatment group value): 0.66%
